Results: patent US4150029A, “3-Aryl 2-oxazolidinones, their process of preparation and their therapeutical application” (Delalande S.A., priority 1976, dated 1979)
Read-outs that look alike come from different tables or passages of the source.

Legend:
Type in all cases: in vivo
[1] = tested on: ptosis observed one hour after an intravenous injection of reserpine; experiment: Test B: antagonism of reserpine-induced ptosis in the mouse; details: po, 1 h, p.o., reserpine 2 mg/kg i.v., read-out: Test B 50 DE
Protocol: Antagonism in relation to ptosis observed one hour after an intravenous injection (2 mg/kg) of reserpine was given to a mouse, according to the mode of operation described by GOURET C. and THOMAS J. in J. Pharmacol. (PARIS), (1973), 4, 401.

[2] = tested on: pontogeniculo-occipital points (P.G.O.) caused by reserpine; experiment: Test C: diminution in density of reserpine-induced pontogeniculo-occipital (P.G.O.) points in the cat; details: Felis catus, po, reserpine 0.5 mg/kg, read-out: Test C 50 DE
Protocol: Diminution in the density of pontogeniculo-occipital points (P.G.O.) caused by injecting a cat with 0.5 mg/kg of reserpine, according to the mode of operation described by COSTON A. and GOURET C. in J. Pharmacol. (PARIS), (1976), 7, 409.

[3] = tested on: generalised trembling caused by an intraperitoneal injection of dl-5-hydroxytryptophane; experiment: Test A: potentiation of generalised trembling caused by dl-5-hydroxytryptophane in the mouse; details: po, read-out: Test A 50 DE
Protocol: Potentiation in a mouse of generalised trembling caused by an intraperitoneal injection (200 mg/kg) of dl-5-hydroxytryptophane, according to the mode of operation described by GOURET C. and RAYNAUD G. in the J. Pharmacol. (PARIS), (1974), 5, 231.

[4] = mouse, p.o., dl-5-hydroxytryptophane 200 mg/kg i.p.

| SMILES | ED50 [1] [mg/kg] | ED50 [2] [mg/kg] | ED50 [3, 4] [mg/kg] | ED50 ([3]; Mus musculus) [mg/kg] |
| --- | --- | --- | --- | --- |
| CCN(CC)c1ccc(N2CC(CO)OC2=O)cc1 (stereo not drawn) [compound 760311] | 32 | 9 | 27 | – |
| CNc1ccc(N2CC(CO)OC2=O)cc1 (stereo not drawn) [compound 760395, 5-hydroxymethyl 3-p-N-methylaminophenyl 2-oxazolidinone] | 28 | 160 | 39 | – |
| O=C1OC(CO)CN1c1ccc(OCc2ccc([N+](=O)[O-])cc2)cc1 (stereo not drawn) [compound 760622] | 2.1 | 40 | 5.5 | – |
| Cc1ccccc1COc1ccc(N2CC(CO)OC2=O)cc1 (stereo not drawn) [compound 760537] | 17 | 37.5 | 35 | – |
| CN(Cc1ccccc1)c1ccc(N2CC(CO)OC2=O)cc1 (stereo not drawn) [compound 760375, 5-hydroxymethyl 3-p-N-benzyl N-methylaminophenyl 2-oxazolidinone] | 28 | 160 | 39 | – |
| CC(=O)COc1ccc(N2CC(CO)OC2=O)cc1 (stereo not drawn) [compound 760652] | 2.8 | 13 | 7.1 | – |
| CNC(=O)OCC1CN(c2ccc(OCc3ccc(F)cc3)cc2)C(=O)O1 (stereo not drawn) [compound 760717] | 12.5 | > 50 | – | > 12.5 |
| O=C1OC(CO)CN1c1ccc(OCc2cccc(C(F)(F)F)c2)cc1 (stereo not drawn) [compound 760556] | 3.2 | 14.1 | 5 | – |
| C/C=C/COc1ccc(N2CC(CO)OC2=O)cc1 (stereo not drawn) [compound 760827] | 10 | 5.2 | 15 | – |
| C#CCOc1ccc(N2CC(CO)OC2=O)cc1 (stereo not drawn) [compound 760307] | 14 | 5 | 8 | – |
| CC(=O)c1ccc(N2CC(CO)OC2=O)cc1 (stereo not drawn) [compound 760670] | 10 | 14 | 21 | – |
| Cc1cccc(COc2ccc(N3CC(CO)OC3=O)cc2)c1 (stereo not drawn) [compound 760533] | 54 | 51 | 41 | – |
| CCc1cccc(N2CC(CO)OC2=O)c1 (stereo not drawn) [compound 740512] | 32 | 50 | 68 | – |
| CCCCCOc1ccc(N2CC(CO)OC2=O)cc1 (stereo not drawn) [compound 760396] | 1.4 | 20 | 12 | – |
| O=C1OC(CO)CN1c1ccc(OCc2ccc(Br)cc2)cc1 (stereo not drawn) [compound 760574] | 22 | > 50 | 21 | – |
| CCSc1ccc(N2CC(CO)OC2=O)cc1 (stereo not drawn) [compound 760466] | 32 | 8.25 | 40 | – |
| N#CCOc1ccc(N2CC(CO)OC2=O)cc1 (stereo not drawn) [compound 760651, 5-hydroxymethyl 3-p-cyanomethyloxyphenyl 2-oxazolidinone] | 2.5 | 1.5 | 5.5 | – |
| CC(C)=CCOc1ccc(N2CC(CO)OC2=O)cc1 (stereo not drawn) [compound 760650] | 3.4 | 7.03 | 25.5 | – |
| O=C1OC(CO)CN1c1ccc(OCc2cccc(Cl)c2)cc1 (stereo not drawn) [compound 760548] | 3.4 | 33.5 | 4.4 | – |
| CNC(=O)OCC1CN(c2ccc(OCc3ccc([N+](=O)[O-])cc3)cc2)C(=O)O1 (stereo not drawn) [compound 760676] | 6.25 | 22 | – | > 12.5 |
| CCCSc1ccc(N2CC(CO)OC2=O)cc1 (stereo not drawn) [compound 760600] | 15.4 | 6.26 | 19 | – |
| C=C(C)COc1ccc(N2CC(CO)OC2=O)cc1 (stereo not drawn) [compound 760535] | 50 | 5.1 | 28 | – |
| C#CCOc1ccc(N2CC(COC(=O)NC)OC2=O)cc1 (stereo not drawn) [compound 760658] | 27 | 13.9 | – | > 12.5 |

| SMILES | ED50 [1] [mg/kg] | ED50 [2] [mg/kg] | ED50 [3, 4] [mg/kg] | ED50 ([3]; Mus musculus) [mg/kg] |
| --- | --- | --- | --- | --- |
| O=C1OC(CO)CN1c1ccc(OCCc2ccccc2)cc1 (stereo not drawn) [compound 760317] | 17 | 45 | 25 | – |
| CCCCCCOc1ccc(N2CC(CO)OC2=O)cc1 (stereo not drawn) [compound 760549] | 11 | 85 | 26 | – |
| C=CCOc1ccc(N2CC(CO)OC2=O)cc1 (stereo not drawn) [compound 760306] | 29 | 2.5 | 14 | – |
| CNC(=O)OCC1CN(c2ccc(OCc3ccccc3)cc2)C(=O)O1 (stereo not drawn) [compound 760409] | 7 | > 50 | – | 100 |
| CNC(=O)OCC1CN(c2ccc(SC)cc2)C(=O)O1 (stereo not drawn) [compound 760786] | 40 | 25.5 | – | > 50 |
| O=C1OC(CO)CN1c1ccc(N2CCCC2)cc1 (stereo not drawn) [compound 760474] | 68 | 14 | 42 | – |
| O=C1OC(CO)CN1c1cccc(Br)c1 (stereo not drawn) [compound 750710] | 100 | 14 | 62 | – |
| CNC(=O)OCC1CN(c2ccc(OCC(C)C)cc2)C(=O)O1 (stereo not drawn) [compound 760712] | 25 | 35 | – | 48 |
| CC(C)COc1ccc(N2CC(CO)OC2=O)cc1 (stereo not drawn) [compound 760414] | 3 | 5.5 | 13 | – |
| C=CCCOc1ccc(N2CC(CO)OC2=O)cc1 (stereo not drawn) [compound 760536] | 15 | 6.3 | 8.6 | – |
| CNC(=O)OCC1CN(c2ccc(OCc3cccc(Cl)c3)cc2)C(=O)O1 (stereo not drawn) [compound 760729] | 23 | 50 | – | > 12.5 |
| N#Cc1ccc(COc2ccc(N3CC(CO)OC3=O)cc2)cc1 (stereo not drawn) [compound 760881] | 5 | 29 | 12.5 | – |
| O=C1OC(CO)CN1c1ccc(OC2CCCCC2)cc1 (stereo not drawn) [compound 760314] | 18 | 12 | 19 | – |
| CNC(=O)OCC1CN(c2ccc(OCC#N)cc2)C(=O)O1 (stereo not drawn) [compound 760660, 5-N-methylcarbamoyloxymethyl 3-p-cyanomethyloxyphenyl 2-oxazolidinone] | 31 | 12.3 | – | > 12.5 |
| O=C1OC(CO)CN1c1ccc(OCc2ccc(Cl)cc2)cc1 (stereo not drawn) [compound 760337] | 5 | 120 | 6 | – |
| CCCCSc1ccc(N2CC(CO)OC2=O)cc1 (stereo not drawn) [compound 760473] | 22 | 11.5 | 41 | – |
| CNC(=O)OCC1CN(c2ccc(C(C)=O)cc2)C(=O)O1 (stereo not drawn) [compound 760731] | 15 | 17.5 | – | > 25 |
| CCCCOc1ccc(N2CC(COC(=O)NC)OC2=O)cc1 (stereo not drawn) [compound 760662] | 17.5 | 23 | – | 48 |
| CN(C)c1ccc(N2CC(CO)OC2=O)cc1 (stereo not drawn) [compound 760133] | 7.2 | 4.5 | 11 | – |
| CC#CCOc1ccc(N2CC(CO)OC2=O)cc1 (stereo not drawn) [compound 760877] | 25 | 5.6 | 25 | – |
| CC(C)Oc1ccc(N2CC(CO)OC2=O)cc1 (stereo not drawn) [compound 760116] | 50 | 15 | 60 | – |
| Cc1ccc(N2CC(CO)OC2=O)cc1C (stereo not drawn) [compound 750341] | 41 | 22 | 100 | – |
| O=C1OC(CO)CN1c1cccc([N+](=O)[O-])c1 (stereo not drawn) [compound 740511, 5-hydroxymethyl-3-metanitrophenyl-2 oxazolidinone] | 17 | 40 | 55 | – |
